How the values were obtained:
Assay type in all cases: physicochemical
[1] = Reproducibility: particle size and distribution by laser diffraction (Malvern Mastersizer), Example 11; conditions: 300 bar, 35° C., acetone 0.6% w/v; for Mean Particle Size: two different days
Protocol: Two different solutions of salmeterol xinafoate in acetone (0.6% w/v) were made and each solution was co-introduced with CO2 via a coaxial nozzle into the particle formation vessel using the apparatus described on two different days to give samples A and B. The operating conditions were 300 bar and 35° C., with flow rates of 0.2 ml/min for the salmeterol solution and 6 ml/min for the supercritical CO2. The crystallised salmeterol xinafoate provided from each solution was examined for particle size and size distribution.

[2] = Particle size analysis by laser diffraction (Malvern Mastersizer E), Example 3
Protocol: A solution of salmeterol xinafoate in acetone (0.6% w/v) was co-introduced with CO2 at 200 bar and 55° C. via a coaxial nozzle into the particle formation vessel using the apparatus described and shown in FIG. 1. A series of products was obtained by changing the flow rate ratio of salmeterol xinafoate solution/supercritical CO2, where the flow ratio is defined as: [formula]
The flow ratio was changed between 0.01 and 0.07, with a flow rate of 9 ml/min for the supercritical CO2.
The resultant dry, easily handlable products without significant static charge were examined by scanning electron microscopy (SEM) and by laser diffraction (Malvern Mastersizer E) for particle size analysis (see FIGS. 12-15).
The uniformity index is defined as: [formula]

[3] = Relative static charge: drug remaining coated to vial walls after rolling; conditions: after rolling drug in vial for 5 minutes
Protocol: Using samples prepared as described in Example 1, a simple test was devised to determine their relative static charge based on the quantity of drug remaining coated to the walls of a vial after rolling a predetermined quantity of drug in the vial for 5 minutes. The greater the drug remaining on the vial, the higher the relative static charge associated with the drug substance.

[4] = Dynamic bulk density (fluidisability) of salmeterol xinafoate powders; conditions: powder
Protocol: The dynamic bulk density (W) is indicative of a substance's fluidisability and is defined as: [formula]
where P is the packed bulk density (g.cm^−3), A is the aerated bulk density (g.cm^−3) and C is the compressibility (%) where C is calculated by the equation: [formula]
Conventionally crystallised salmeterol xinafoate, both before and after micronisation, was compared against salmeterol xinafoate made by the supercritical fluid method described herein. A solution of salmeterol xinafoate in acetone (0.63% w/v) was co-introduced with CO2 at 300 bar and 45° C. via a coaxial nozzle into the particle formation vessel using the apparatus described and shown in FIG. 1 to give sample 1. A solution of salmeterol xinafoate in acetone (0.50% w/v) was cointroduced with CO2 at 100 bar and 55° C. via a coaxial nozzle into the particle formation vessel using the apparatus described and shown in FIG. 1 to give sample 2. In each case, the solution flow rate was 0.4 ml/min and supercritical CO2 was co-introduced into the particle formation vessel at a flow rate of 9 ml/min.
The dynamic bulk densities are shown below in Table 2: […]

[5] = Scanning electron microscopy of particles; conditions: SEM; needle shaped particles from isopropanol (0.2% w/v), 150 bar, 60° C.
Protocol: In another experiment, a solution of salmeterol xinafoate in isopropanol (0.2% w/v) was co-introduced with CO2 at 150 bar and 60° C. via a coaxial nozzle into the particle formation vessel using the apparatus described and shown in FIG. 1. The dry, easily handlable product without significant static charge was examined by SEM (see FIG. 16) and found to be composed of needle shaped particles with a maximum particle dimension of up to 300 microns. Thus by controlling and changing the working conditions of the particle formation process, salmeterol xinafoate products composed of particles with different particle sizes and size distributions were produced.

Row | Compound | % < 5 μm [2] | % < 10 μm [2] | Mean Particle Size [2] | Uniformity index [2] | Dynamic Bulk Density W [4] | further results
1 | OCc1cc(C(O)CNCCCCCCOCCCCc2ccccc2)ccc1O (single isomer, unassigned) [Sample A, salmeterol xinafoate] | – | – | – | – | – | % < 5 microns [1]: 31.6%; % < 10 microns [1]: 67.8%; Uniformity index [1]: 9; Mean Particle Size [1]: 7.2 Microns
2 | OCc1cc(C(O)CNCCCCCCOCCCCc2ccccc2)ccc1O (single isomer, unassigned) [Sample B, salmeterol xinafoate] | – | – | – | – | – | % < 5 microns [1]: 28.3%; % < 10 microns [1]: 64.5%; Uniformity index [1]: 9; Mean Particle Size [1]: 7.7 Microns
3 | OCc1cc(C(O)CNCCCCCCOCCCCc2ccccc2)ccc1O (stereo not shown) [Conventionally crystallised salmeterol xinafoate (micronised] [reference compound] | >90% | >95% | 1-3 μm | 13.1 | 0.137 g · cm^−3 | % Drug Retaining on Vial [3]: 7.0%
4 | OCc1cc(C(O)CNCCCCCCOCCCCc2ccccc2)ccc1O (stereo not shown) [SCF salmeterol xinafoate (sample 1), salmeterol xinafoate] | 66.0% | 94.5% | 3.85 μm | 10.2 | 0.033 g · cm^−3 | % Drug Retaining on Vial ([3]; sample 1): 2.5%
5 | OCc1cc(C(O)CNCCCCCCOCCCCc2ccccc2)ccc1O (stereo not drawn) [salmeterol xinafoate, 4-hydroxy-α^1-[[[6-(4-phenylbutoxy)hexyl]amino]methyl]-1,3-benzenedimethanol (salmeterol) 1-hydroxy-2-naphthalenecarboxylate (xinafoate)] | – | – | – | – | – | maximum particle dimension [5]: up to 300 microns

The next lines start with results.

Row | % < 5 μm [2] | % < 10 μm [2] | Mean Particle Size [2] | Uniformity index [2] | Dynamic Bulk Density W [4] | Compound | further results
6 | 5.7% | 16.1% | 18.84 μm | 19.2 | 0.059 g · cm^−3 | OCc1cc(C(O)CNCCCCCCOCCCCc2ccccc2)ccc1O (stereo not shown) [SCF salmeterol xinafoate (sample 2), salmeterol xinafoate] | % Drug Retaining on Vial ([3]; sample 2): 5.7%
7 | – | – | – | – | 0.312 g · cm^−3 | OCc1cc(C(O)CNCCCCCCOCCCCc2ccccc2)ccc1O (stereo not shown) [conventionally crystallised salmeterol xinafoate (non-micron] [reference compound] | –

Source: US6613307B1, “Aerosol formulations of salmeterol xinafoate” (SmithKline Beecham Corporation, priority 1998, dated 2003)
